Tests used:
[1] = biological target: Nitric oxide synthase 3 (Homo sapiens, UniProt P29474); test: Inhibition of recombinant human eNOS expressed in baculovirus-infected Sf9 cells assessed as conversion of [3H]-larginine to [3H]-L-citrulline preincubated for 15 mins measured after 45 mins by liquid scintillation counting
[2] = biological target: Nitric oxide synthase 1 (Homo sapiens, UniProt P29475); test: Inhibition of recombinant human nNOS expressed in baculovirus-infected Sf9 cells assessed as conversion of [3H]-larginine to [3H]-L-citrulline preincubated for 15 mins measured after 45 mins by liquid scintillation counting
[3] = biological target: Nitric oxide synthase, inducible (Homo sapiens, UniProt P35228); test: Inhibition of recombinant human iNOS expressed in baculovirus-infected Sf9 cells assessed as conversion of [3H]-larginine to [3H]-L-citrulline preincubated for 15 mins measured after 45 mins by liquid scintillation counting
[4] = biological target: Substance-P receptor (Homo sapiens) (UniProt P25103); conditions: U-373MG ATCC
Chain of Substance-P receptor (Homo sapiens) (P25103 whole entry): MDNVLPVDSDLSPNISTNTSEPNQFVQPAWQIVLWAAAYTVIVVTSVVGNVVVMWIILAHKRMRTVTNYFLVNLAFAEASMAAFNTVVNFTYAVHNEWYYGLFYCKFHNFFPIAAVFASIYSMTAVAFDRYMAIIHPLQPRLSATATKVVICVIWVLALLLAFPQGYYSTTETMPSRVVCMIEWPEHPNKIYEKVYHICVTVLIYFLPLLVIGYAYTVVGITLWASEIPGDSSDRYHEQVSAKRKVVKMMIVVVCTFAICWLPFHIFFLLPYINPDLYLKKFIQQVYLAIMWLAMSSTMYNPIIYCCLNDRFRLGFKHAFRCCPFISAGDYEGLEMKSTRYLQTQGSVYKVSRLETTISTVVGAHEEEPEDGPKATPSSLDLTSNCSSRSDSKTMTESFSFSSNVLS
Description: Displacement of [125I]BH-SP from NK1 receptor in human U-373MG cells at 10 uM after 60 mins

Chain of Nitric oxide synthase 3 (P29474 whole entry, looked up): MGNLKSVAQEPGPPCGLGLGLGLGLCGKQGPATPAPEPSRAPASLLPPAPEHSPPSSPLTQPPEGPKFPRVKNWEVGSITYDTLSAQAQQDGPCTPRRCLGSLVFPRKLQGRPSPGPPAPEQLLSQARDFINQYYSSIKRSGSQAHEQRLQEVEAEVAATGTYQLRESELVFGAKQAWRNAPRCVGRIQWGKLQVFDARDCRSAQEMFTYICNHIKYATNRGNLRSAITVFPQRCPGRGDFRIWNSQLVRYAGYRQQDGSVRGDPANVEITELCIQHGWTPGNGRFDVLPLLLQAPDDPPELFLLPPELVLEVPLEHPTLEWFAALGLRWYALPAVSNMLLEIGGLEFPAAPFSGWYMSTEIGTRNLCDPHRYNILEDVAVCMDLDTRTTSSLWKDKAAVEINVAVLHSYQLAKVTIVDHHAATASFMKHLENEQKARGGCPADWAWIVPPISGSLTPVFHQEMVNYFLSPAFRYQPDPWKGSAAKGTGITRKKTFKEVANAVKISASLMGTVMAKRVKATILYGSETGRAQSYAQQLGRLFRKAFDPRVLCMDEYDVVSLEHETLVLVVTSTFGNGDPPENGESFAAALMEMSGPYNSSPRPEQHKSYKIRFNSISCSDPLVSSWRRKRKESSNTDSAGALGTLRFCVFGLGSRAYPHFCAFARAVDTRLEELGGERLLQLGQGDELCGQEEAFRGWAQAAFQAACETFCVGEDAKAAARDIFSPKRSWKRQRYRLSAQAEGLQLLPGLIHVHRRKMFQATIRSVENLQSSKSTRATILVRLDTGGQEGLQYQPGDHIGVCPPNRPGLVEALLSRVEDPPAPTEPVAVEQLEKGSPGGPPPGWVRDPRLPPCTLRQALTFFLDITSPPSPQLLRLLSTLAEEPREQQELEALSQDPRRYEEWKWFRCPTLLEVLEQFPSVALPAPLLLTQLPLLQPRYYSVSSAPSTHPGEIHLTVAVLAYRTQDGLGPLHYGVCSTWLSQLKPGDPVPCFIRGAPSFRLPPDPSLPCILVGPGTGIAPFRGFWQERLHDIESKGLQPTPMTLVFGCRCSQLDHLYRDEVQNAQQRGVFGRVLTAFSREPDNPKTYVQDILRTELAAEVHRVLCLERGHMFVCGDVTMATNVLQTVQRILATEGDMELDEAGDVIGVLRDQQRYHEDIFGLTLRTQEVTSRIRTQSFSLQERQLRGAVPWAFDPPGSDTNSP
Chain of Nitric oxide synthase, inducible (P35228 whole entry, looked up): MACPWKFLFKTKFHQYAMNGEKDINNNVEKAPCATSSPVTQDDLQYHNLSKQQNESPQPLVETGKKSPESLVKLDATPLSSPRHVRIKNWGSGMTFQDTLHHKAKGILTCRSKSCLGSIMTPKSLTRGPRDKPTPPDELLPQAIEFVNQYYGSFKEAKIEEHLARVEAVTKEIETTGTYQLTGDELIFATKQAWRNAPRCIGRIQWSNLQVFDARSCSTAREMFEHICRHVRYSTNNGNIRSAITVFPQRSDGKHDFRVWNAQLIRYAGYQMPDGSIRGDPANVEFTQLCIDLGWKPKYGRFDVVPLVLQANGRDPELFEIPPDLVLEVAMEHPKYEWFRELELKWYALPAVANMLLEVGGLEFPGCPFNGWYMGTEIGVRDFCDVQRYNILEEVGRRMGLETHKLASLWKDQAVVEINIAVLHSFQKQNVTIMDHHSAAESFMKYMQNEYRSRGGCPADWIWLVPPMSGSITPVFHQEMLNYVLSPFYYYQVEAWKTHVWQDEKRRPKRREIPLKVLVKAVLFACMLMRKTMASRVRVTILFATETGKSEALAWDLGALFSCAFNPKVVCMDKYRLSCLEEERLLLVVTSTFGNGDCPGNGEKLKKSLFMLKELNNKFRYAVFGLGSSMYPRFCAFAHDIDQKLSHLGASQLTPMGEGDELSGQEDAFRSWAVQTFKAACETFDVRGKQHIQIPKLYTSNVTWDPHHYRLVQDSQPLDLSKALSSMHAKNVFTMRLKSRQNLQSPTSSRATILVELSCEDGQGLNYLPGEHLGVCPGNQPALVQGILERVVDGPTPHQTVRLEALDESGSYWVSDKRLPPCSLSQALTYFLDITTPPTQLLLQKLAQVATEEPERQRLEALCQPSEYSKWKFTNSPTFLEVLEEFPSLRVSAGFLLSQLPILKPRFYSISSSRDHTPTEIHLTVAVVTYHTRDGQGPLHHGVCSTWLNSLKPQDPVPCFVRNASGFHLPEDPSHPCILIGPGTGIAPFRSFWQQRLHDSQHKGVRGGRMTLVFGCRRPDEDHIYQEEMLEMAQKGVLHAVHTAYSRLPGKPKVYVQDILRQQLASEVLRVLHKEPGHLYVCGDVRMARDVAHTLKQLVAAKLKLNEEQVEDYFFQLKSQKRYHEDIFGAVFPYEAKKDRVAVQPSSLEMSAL
Chain of Nitric oxide synthase 1 (P29475 whole entry): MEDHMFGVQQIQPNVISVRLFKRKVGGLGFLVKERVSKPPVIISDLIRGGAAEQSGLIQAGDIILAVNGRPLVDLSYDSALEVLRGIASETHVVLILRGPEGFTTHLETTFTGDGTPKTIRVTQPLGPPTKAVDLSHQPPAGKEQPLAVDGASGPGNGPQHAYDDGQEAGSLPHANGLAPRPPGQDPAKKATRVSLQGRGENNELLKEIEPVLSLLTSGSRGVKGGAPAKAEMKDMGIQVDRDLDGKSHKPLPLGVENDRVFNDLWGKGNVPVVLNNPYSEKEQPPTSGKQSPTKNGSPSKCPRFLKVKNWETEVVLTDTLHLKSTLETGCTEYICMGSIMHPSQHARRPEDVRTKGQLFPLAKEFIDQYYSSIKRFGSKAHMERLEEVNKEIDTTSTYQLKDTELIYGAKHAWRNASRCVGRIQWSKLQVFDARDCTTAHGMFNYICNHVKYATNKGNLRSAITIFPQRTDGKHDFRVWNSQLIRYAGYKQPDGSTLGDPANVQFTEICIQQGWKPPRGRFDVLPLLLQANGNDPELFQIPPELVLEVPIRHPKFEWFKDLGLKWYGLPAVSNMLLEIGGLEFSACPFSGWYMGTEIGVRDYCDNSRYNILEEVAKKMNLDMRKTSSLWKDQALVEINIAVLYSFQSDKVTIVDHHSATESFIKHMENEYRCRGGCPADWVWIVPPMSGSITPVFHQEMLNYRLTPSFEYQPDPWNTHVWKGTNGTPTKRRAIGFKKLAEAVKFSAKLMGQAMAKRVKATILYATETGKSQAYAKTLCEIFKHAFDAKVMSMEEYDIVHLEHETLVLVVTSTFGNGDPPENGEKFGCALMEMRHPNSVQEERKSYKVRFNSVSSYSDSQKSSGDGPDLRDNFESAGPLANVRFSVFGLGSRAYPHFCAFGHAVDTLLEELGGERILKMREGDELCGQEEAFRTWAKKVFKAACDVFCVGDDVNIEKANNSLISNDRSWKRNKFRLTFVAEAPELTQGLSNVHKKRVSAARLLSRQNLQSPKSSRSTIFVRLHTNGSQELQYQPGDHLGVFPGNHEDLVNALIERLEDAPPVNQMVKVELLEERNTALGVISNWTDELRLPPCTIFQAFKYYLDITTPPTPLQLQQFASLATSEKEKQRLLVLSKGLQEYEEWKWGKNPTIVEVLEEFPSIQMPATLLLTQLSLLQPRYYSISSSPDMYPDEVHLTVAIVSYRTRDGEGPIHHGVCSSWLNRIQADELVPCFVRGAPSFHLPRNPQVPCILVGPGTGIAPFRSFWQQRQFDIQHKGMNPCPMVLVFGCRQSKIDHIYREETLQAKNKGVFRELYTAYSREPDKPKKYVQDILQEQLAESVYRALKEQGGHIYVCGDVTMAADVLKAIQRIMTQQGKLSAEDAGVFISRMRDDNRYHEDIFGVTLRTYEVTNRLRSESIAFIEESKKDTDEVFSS

| SMILES | IC50 [1] | IC50 [2] | IC50 [3] | inhibition [4] |
| --- | --- | --- | --- | --- |
| N=C(Nc1ccc2c(c1)CCN2CCNCCO)c1cccs1 | 10100 nM | 350 nM | – | – |
| CNC1CCC(N2CCc3cc(NC(=N)c4cccs4)ccc32)CC1 (cis isomer) | – | 200 nM | 4080 nM | – |
| N=C(Nc1ccc2c(c1)CCN2C1CCCNC1)c1cccs1 (racemic) | 94000 nM | 330 nM | 52200 nM | – |
| N=C(Nc1ccc2c(c1)CCN2C1CCNCC1)c1cccs1 [listing 1 of 2 here] | 40500 nM | 110 nM | 415000 nM | – |
| CC1CC(N2CCc3cc(NC(=N)c4cccs4)ccc32)CCN1 (cis isomer) | 124000 nM | 690 nM | 1170 nM | – |
| N=C(Nc1ccc2c(c1)CCN2C1CCN(CCO)CC1)c1cccs1 | 39300 nM | 160 nM | 1580 nM | – |

The next lines start with the values.

| IC50 [1] | IC50 [2] | IC50 [3] | inhibition [4] | SMILES |
| --- | --- | --- | --- | --- |
| 53700 nM | 710 nM | 1090 nM | – | CC1CC(N2CCc3cc(NC(=N)c4cccs4)ccc32)CCN1 (stereo in doubt) |
| 51700 nM | 910 nM | 1800 nM | – | CC1CC(N2CCc3cc(NC(=N)c4cccs4)ccc32)CCN1 (single isomer, unassigned; (+)) |
| 37300 nM | 120 nM | 410 nM | – | N=C(Nc1ccc2c(c1)CCN2CCN1CCCC1)c1cccs1 |
| 11400 nM | 40 nM | 4070 nM | – | CN(C)CCN1CCc2cc(NC(=N)c3cccs3)ccc21 |
| 10500 nM | 620 nM | 770 nM | – | N=C(Nc1ccc2c(c1)CCN2C(=O)CN1CCCC1)c1cccs1 |
| 36700 nM | 370 nM | 4750 nM | – | CC1CC(N2CCc3cc(NC(=N)c4cccs4)ccc32)CCN1 (trans isomer) |
| 58200 nM | 200 nM | 4670 nM | – | CN1CCC(N2CCc3cc(NC(=N)c4cccs4)ccc32)CC1 |
| – | – | – | 12% | N=C(Nc1ccc2c(c1)CCN2C1CCNCC1)c1cccs1 [listing 2 of 2 here] |
| – | 100 nM | 4870 nM | – | CNC1CCC(N2CCc3cc(NC(=N)c4cccs4)ccc32)CC1 (trans isomer) |

Source: ChEMBL document CHEMBL2203205 (Eur J Med Chem, 2012)
